Data: PMC5937080, “Design, Synthesis and Biological Evaluation of Novel Peptide-Like Analogues as Selective COX-2 Inhibitors” (Iranian Journal of Pharmaceutical Research : IJPR, 2018)

Legend:
[1] = target: T1, COX-1 (Ovis aries, UniProt P05979); test: biochemical; details: ovine COX-1/COX-2 assay kit; mean of two determinations, deviation < 10% of the mean
T1 construct: purchased Cayman chemical, MI, USA
T1 sequence (P05979 25-600): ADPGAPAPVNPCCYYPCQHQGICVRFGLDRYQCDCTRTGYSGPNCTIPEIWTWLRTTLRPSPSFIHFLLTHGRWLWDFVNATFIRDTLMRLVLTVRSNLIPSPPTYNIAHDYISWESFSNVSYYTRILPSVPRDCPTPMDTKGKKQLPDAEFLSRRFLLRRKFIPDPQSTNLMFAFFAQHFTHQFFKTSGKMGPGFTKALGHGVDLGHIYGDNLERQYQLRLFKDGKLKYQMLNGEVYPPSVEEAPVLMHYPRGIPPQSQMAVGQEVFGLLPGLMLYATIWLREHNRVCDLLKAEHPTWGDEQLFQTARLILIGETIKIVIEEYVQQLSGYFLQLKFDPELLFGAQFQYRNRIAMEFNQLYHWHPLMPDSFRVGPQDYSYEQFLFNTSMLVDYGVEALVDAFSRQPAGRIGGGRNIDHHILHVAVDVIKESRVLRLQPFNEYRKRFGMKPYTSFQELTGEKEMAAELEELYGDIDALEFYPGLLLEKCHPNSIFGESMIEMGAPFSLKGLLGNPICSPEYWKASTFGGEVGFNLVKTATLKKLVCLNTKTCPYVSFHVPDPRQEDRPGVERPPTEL
Protocol: (§1) In-vitro cyclooxygenase (COX) inhibition assays
(§2) The assay was performed using an enzyme chemiluminescent kit (Cayman chemical, MI, USA) according to the previously reported method ([17]).

[2] = target: T2, COX-2 (Ovis aries, UniProt P79208); test: biochemical; details: for IC50: ovine COX-1/COX-2 assay kit, mean of two determinations, deviation < 10% of the mean
T2 construct: purchased Cayman chemical, MI, USA
T2 sequence (P79208 17-603): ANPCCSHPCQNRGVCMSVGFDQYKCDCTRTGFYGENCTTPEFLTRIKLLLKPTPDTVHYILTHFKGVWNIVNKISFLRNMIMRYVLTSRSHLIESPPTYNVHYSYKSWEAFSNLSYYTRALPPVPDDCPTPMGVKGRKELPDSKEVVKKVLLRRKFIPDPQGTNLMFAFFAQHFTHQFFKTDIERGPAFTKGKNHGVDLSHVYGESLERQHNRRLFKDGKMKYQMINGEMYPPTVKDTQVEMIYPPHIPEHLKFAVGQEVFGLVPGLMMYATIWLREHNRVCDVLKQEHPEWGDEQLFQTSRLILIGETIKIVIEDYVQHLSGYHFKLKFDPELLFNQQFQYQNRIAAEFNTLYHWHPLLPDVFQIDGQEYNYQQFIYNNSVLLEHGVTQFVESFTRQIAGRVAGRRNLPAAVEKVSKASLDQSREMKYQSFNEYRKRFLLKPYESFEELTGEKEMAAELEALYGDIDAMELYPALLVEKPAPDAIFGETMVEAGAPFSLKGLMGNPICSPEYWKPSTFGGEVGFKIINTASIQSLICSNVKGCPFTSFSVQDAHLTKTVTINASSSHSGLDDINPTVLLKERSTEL
Protocol: as §1, §2

Row | Compound | IC50 [1] [µM] | IC50 [2] [µM] | S.I. In-vitro COX-2 selectivity index (COX-1 IC50/COX-2 IC50) [2]
1 | CS(=O)(=O)c1ccc(C(=O)NC(Cc2ccccc2)C(=O)O)cc1 (centres unmarked) [Compound 1c, p-(methylsulfonyl)benzoyl-phenylalanine] | > 100 | > 100 | 
2 | [N-]=[N+]=Nc1ccc(C(=O)NC(Cc2ccccc2)C(=O)O)cc1 (centres unmarked) [Compound 1d, p-azidobenzoyl-phenylalanine] | 55.5 | > 100 | 
3 | CS(=O)(=O)c1ccc(C(=O)NC(Cc2cnc[nH]2)C(=O)O)cc1 (stereo not drawn) [Compound 2c, p-MeSO2Bz -His] | > 100 | > 100 | 
4 | [N-]=[N+]=Nc1ccc(C(=O)NC(Cc2c[nH]cn2)C(=O)O)cc1 (centres unmarked) [Compound 2d, p-N3Bz -His] | 28.1 | 0.08 | 351.2
5 | CS(=O)(=O)c1ccc(C(=O)NC(Cc2ccc(O)cc2)C(=O)O)cc1 (stereo not drawn) [Compound 3c, p-MeSO 2 Bz -Tyr] | 25.2 | 0.23 | 109.6
6 | [N-]=[N+]=Nc1ccc(C(=O)NC(Cc2ccc(O)cc2)C(=O)O)cc1 (centres unmarked) [Compound 3d, p-N3Bz -Tyr] | 20.9 | 10.1 | 2.1
7 | CS(=O)(=O)c1ccc(C(=O)NC(Cc2c[nH]c3ccccc23)C(=O)O)cc1 (stereo not drawn) [Compound 4c, p-MeSO2Bz -Trp] | 16.6 | 0.09 | 184.4
8 | [N-]=[N+]=Nc1ccc(C(=O)NC(Cc2c[nH]c3ccccc23)C(=O)O)cc1 (centres unmarked) [Compound 4d, p-N3Bz -Trp] | > 100 | > 100 | 
